Tests used:
[1] = target: Vascular endothelial growth factor receptor 2 (Homo sapiens, UniProt P35968); type: functional
[2] = target: T1, Amine oxidase [flavin-containing] A (Homo sapiens, UniProt P21397); type: functional
T1 sequence (P21397 whole entry): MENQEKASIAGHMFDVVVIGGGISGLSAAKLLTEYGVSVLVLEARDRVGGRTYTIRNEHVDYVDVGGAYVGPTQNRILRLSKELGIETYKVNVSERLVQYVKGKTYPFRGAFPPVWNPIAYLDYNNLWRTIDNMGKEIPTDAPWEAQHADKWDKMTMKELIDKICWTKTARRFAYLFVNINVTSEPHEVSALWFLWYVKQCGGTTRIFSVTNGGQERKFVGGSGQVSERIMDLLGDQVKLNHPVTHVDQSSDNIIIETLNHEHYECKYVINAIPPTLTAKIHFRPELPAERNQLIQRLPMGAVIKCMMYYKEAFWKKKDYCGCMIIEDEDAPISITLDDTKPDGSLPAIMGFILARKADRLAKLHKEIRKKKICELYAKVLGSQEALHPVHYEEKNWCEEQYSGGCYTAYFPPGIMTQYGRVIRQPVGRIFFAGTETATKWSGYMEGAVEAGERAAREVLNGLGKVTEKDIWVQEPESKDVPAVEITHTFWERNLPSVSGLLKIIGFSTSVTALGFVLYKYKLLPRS

[3] = target: 5-hydroxytryptamine receptor 2B (Homo sapiens, UniProt P41595); type: functional, cell-based
[4] = target: T2, Alpha-2C adrenergic receptor (Homo sapiens, UniProt P18825); type: functional
T2 sequence (P18825 whole entry): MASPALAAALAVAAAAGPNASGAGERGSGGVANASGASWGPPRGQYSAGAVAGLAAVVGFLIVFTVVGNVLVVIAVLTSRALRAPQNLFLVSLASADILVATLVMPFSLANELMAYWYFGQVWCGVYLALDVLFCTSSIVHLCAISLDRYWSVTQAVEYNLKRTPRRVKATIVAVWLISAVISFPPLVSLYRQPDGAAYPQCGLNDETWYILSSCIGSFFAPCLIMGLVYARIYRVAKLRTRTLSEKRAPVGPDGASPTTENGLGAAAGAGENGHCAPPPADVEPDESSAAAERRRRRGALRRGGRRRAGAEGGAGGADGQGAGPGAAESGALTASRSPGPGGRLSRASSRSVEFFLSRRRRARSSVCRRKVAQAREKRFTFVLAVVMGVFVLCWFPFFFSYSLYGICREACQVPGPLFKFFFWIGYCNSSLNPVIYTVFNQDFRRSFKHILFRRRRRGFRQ

[5] = target: Gamma-aminobutyric acid receptor subunit alpha-1 (Rattus norvegicus, UniProt P62813); type: functional
[6] = target: Kappa-type opioid receptor (Homo sapiens, UniProt P41145)
[7] = target: Adenosine receptor A2a (Homo sapiens, UniProt P29274)
[8] = target: T3, 5-hydroxytryptamine receptor 1A (Homo sapiens, UniProt P08908); type: functional, cell-based
T3 sequence (P08908 whole entry): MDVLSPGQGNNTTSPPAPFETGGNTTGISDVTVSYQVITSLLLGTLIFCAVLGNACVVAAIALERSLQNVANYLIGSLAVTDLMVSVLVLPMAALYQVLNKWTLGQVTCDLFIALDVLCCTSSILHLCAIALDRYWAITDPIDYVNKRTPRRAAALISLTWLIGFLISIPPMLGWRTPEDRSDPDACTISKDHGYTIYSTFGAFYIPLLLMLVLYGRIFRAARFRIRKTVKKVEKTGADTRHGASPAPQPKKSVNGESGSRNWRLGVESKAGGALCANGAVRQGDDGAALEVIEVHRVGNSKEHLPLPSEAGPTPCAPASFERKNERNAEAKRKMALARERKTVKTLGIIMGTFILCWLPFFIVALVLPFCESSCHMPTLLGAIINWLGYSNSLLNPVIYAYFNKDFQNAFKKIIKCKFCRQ

[9] = target: Sodium-dependent noradrenaline transporter (Homo sapiens, UniProt P23975)
[10] = target: cGMP-inhibited 3',5'-cyclic phosphodiesterase 3A (Homo sapiens, UniProt Q14432); type: functional
[11] = target: Cannabinoid receptor 1 (Homo sapiens, UniProt P21554); type: functional, cell-based
[12] = target: Sodium-dependent dopamine transporter (Homo sapiens, UniProt Q01959)
[13] = target: Histamine H2 receptor (Homo sapiens, UniProt P25021); type: functional, cell-based
[14] = target: T4, Alpha-2B adrenergic receptor (Homo sapiens, UniProt P18089)
T4 sequence (P18089 whole entry): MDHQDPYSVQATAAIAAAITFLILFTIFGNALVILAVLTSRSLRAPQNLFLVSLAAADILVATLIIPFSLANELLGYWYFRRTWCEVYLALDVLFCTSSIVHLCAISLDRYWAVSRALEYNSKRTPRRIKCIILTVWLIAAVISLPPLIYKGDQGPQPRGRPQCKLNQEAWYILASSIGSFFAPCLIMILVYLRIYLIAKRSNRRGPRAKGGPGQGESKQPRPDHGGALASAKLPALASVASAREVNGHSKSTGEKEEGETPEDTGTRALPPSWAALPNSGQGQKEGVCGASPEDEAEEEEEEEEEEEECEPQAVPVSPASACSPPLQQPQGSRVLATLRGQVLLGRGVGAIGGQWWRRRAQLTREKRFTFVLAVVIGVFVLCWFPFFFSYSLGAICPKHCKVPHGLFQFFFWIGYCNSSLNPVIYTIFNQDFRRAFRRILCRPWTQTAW
Also: assay procedure not described here.

Chain of Cannabinoid receptor 1 (P21554 whole entry): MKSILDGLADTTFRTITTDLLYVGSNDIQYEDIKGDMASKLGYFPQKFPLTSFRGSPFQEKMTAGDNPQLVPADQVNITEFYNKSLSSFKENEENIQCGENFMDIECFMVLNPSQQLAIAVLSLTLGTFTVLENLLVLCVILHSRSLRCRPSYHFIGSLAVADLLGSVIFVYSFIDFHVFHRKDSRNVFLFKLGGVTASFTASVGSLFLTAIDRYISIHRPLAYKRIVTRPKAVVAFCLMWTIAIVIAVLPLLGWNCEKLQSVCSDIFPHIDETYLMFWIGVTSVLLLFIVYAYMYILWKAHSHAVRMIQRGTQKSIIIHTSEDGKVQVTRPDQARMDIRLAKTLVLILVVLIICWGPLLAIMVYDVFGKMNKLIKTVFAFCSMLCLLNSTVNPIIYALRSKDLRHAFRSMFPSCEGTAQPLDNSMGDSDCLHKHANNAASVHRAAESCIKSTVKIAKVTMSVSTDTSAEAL
Chain of Gamma-aminobutyric acid receptor subunit alpha-1 (P62813 whole entry): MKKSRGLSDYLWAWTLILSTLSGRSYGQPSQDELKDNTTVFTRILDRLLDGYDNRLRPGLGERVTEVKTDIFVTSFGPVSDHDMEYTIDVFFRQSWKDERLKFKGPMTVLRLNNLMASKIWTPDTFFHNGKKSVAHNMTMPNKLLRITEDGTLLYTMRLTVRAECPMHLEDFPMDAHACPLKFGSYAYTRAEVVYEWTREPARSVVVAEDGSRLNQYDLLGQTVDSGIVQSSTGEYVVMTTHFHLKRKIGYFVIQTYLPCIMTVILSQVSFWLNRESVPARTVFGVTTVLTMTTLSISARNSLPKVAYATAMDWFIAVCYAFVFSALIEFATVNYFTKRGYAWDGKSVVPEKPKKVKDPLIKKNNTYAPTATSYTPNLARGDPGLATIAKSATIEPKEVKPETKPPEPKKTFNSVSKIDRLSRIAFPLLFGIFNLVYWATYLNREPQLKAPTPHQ
Chain of Histamine H2 receptor (P25021 whole entry): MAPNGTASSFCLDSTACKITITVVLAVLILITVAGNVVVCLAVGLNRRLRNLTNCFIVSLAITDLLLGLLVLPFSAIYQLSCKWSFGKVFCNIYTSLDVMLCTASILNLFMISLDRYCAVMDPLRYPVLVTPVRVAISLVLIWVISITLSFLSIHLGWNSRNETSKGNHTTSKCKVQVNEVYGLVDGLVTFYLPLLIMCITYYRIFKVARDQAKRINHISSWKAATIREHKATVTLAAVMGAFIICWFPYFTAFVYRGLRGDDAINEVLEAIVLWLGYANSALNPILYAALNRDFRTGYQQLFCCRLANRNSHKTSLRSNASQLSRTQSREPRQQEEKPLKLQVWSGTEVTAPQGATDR
Chain of 5-hydroxytryptamine receptor 2B (P41595 whole entry): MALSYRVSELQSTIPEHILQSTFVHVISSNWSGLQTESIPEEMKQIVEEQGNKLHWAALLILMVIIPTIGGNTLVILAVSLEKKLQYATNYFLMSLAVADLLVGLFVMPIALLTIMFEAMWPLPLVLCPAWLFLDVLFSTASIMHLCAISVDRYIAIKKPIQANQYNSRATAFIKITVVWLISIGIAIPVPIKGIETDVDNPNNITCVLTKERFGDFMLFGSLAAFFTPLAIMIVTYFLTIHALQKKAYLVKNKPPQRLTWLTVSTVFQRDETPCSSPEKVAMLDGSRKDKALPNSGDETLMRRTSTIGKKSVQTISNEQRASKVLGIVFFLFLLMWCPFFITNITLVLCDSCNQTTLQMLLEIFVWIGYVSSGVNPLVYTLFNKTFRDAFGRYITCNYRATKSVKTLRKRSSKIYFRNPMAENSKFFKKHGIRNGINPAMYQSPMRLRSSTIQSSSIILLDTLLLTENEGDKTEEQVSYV
Chain of Sodium-dependent noradrenaline transporter (P23975 whole entry): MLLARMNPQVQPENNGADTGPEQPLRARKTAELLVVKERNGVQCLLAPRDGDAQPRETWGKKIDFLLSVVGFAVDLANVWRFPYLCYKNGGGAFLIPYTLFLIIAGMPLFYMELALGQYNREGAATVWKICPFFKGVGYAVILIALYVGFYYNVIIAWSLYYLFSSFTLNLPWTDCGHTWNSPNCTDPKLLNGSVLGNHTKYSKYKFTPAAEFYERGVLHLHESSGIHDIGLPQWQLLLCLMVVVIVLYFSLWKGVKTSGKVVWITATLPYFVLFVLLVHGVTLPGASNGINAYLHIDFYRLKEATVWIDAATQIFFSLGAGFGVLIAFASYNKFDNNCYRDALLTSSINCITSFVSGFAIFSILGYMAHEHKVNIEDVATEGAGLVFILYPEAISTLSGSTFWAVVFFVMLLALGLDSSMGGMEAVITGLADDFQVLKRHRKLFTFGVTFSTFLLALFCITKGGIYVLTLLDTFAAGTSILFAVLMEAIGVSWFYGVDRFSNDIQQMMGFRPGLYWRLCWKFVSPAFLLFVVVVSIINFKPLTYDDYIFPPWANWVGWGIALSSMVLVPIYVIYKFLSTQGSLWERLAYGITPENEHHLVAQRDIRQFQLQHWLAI
Chain of cGMP-inhibited 3',5'-cyclic phosphodiesterase 3A (Q14432 whole entry): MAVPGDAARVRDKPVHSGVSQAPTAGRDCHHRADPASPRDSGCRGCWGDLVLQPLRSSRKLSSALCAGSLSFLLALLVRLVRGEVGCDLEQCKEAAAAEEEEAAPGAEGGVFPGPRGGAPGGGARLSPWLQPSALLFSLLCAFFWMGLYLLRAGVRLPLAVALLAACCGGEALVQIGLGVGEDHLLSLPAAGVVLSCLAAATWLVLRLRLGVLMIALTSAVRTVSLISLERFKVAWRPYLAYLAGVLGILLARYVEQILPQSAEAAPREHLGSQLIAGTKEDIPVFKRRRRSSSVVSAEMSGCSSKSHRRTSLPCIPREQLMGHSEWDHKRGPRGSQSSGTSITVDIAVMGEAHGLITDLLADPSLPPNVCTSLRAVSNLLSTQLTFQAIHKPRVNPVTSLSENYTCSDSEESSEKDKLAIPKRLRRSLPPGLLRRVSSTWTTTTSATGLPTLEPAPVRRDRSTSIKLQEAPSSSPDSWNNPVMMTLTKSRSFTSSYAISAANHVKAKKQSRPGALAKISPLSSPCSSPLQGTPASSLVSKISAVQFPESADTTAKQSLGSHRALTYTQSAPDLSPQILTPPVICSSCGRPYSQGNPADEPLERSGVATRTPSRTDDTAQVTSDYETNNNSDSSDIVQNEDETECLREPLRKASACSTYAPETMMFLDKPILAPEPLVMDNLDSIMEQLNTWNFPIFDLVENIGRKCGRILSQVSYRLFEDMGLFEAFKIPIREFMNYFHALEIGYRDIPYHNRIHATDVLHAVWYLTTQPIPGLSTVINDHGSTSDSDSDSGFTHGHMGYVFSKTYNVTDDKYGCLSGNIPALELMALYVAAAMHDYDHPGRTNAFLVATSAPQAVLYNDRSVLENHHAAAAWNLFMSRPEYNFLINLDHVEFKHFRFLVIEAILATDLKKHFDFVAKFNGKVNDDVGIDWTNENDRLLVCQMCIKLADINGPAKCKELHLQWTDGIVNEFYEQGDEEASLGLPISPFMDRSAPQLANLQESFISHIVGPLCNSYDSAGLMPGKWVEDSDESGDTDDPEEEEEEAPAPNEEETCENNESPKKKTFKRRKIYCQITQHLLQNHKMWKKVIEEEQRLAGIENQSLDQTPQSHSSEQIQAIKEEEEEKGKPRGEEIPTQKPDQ
Chain of Adenosine receptor A2a (P29274 whole entry): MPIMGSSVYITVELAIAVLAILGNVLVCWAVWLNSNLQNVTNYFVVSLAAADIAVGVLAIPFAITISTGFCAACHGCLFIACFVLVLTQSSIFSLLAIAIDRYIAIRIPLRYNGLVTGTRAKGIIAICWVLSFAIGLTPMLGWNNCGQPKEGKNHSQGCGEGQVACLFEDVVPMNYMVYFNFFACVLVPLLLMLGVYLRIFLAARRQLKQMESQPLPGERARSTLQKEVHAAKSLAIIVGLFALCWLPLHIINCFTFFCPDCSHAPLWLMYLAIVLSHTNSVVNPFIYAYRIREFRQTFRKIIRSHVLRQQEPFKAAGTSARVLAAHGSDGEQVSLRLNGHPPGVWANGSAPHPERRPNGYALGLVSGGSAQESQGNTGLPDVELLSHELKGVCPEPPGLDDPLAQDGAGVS
Chain of Sodium-dependent dopamine transporter (Q01959 whole entry): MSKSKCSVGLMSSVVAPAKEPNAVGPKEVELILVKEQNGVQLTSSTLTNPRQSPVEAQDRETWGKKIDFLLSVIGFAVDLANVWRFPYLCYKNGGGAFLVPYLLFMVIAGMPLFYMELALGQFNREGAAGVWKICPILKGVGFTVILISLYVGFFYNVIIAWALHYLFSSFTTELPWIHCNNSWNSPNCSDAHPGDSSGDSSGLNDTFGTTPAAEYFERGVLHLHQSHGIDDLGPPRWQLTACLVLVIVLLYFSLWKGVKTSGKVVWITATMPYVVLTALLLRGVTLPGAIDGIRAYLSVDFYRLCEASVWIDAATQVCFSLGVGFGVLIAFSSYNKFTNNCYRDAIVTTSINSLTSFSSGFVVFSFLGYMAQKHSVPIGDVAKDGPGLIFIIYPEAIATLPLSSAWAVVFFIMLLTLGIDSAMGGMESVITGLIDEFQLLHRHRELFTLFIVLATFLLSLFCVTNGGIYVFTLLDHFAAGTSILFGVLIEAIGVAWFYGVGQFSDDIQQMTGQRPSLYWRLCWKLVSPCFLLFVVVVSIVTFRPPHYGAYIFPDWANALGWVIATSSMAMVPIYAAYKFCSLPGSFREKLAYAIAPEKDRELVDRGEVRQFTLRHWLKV
Chain of Kappa-type opioid receptor (P41145 whole entry): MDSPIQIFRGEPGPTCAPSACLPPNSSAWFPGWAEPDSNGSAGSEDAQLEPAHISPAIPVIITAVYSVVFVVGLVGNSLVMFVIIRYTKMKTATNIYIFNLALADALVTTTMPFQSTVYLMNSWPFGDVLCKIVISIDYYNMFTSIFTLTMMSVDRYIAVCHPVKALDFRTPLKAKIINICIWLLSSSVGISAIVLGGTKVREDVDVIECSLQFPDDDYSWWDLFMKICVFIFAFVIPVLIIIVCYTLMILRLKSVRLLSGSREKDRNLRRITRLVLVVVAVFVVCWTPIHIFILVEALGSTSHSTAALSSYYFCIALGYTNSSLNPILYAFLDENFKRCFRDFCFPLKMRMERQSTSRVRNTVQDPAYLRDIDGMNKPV

For `Cc1c(O)cccc1C(=O)N[C@@H](CSc1ccccc1)[C@H](O)CN1C[C@H]2CCCC[C@H]2C[C@H]1C(=O)NC(C)(C)C`, the AC50 [1] was greater than 30 µM.
In the case of `Nc1ccc(C(=O)O)cc1` [AMINOBENZOIC ACID], the AC50 [1] was greater than 30 µM.
`CCCC1C(=O)N2C(N(C)C)=Nc3ccc(C)cc3N2C1=O` (stereo not drawn) [APAZONE] was tested, and the AC50 [1] was greater than 30 µM.
Molecule `O=C1CN=C(c2ccccc2)c2c(sc3c2CCCC3)N1` [BENTAZEPAM] has an AC50 [1] greater than 30 µM.
With `O=C(O)CCCN1CCC(O[C@@H](c2ccc(Cl)cc2)c2ccccn2)CC1` [BEPOTASTINE] the AC50 [1] was greater than 30 µM.
`CN(Cc1cc(Br)cc(Br)c1N)C1CCCCC1` [BROMHEXINE] showed an AC50 [1] greater than 30 µM.
In the case of `CCCC(=O)N1CCCN(c2nc(N)c3cc(OC)c(OC)cc3n2)CC1` [BUNAZOSIN], the AC50 [2] was greater than 30 µM, the AC50 [3] was greater than 30 µM and the AC50 [4] was 0.55 µM. For the same molecule, the AC50 [5] was greater than 30 µM, the AC50 [6] was greater than 30 µM and the AC50 [7] was greater than 30 µM. It also gave an AC50 [8] greater than 30 µM, an AC50 [9] greater than 30 µM and an AC50 [10] greater than 30 µM. It also gave an AC50 [11] greater than 30 µM, an AC50 [12] greater than 30 µM and an AC50 [13] greater than 30 µM. For the same molecule, the AC50 [14] was 1.7 µM.
`CCCCN(CCCC)CCCOC(=O)c1ccc(N)cc1` [BUTACAINE] was tested, and the AC50 [1] was greater than 30 µM.
`CCCC[N+]1(C)[C@@H]2C[C@@H](OC(=O)[C@H](CO)c3ccccc3)C[C@H]1[C@@H]1O[C@@H]12` (stereo partly drawn) [BUTYLSCOPOLAMINE] was tested, and the AC50 [1] was greater than 30 µM.
With `N[C@@H](CSCC(=O)O)C(=O)O` [CARBOCYSTEINE] the AC50 [2] was greater than 30 µM, the AC50 [3] was greater than 30 µM and the AC50 [4] was greater than 30 µM. The AC50 [5] was greater than 30 µM, the AC50 [6] was greater than 30 µM and the AC50 [7] was greater than 30 µM. The AC50 [8] was greater than 30 µM, the AC50 [9] was greater than 30 µM and the AC50 [10] was greater than 30 µM. It also gave an AC50 [11] greater than 30 µM, an AC50 [12] greater than 30 µM and an AC50 [13] greater than 30 µM. The AC50 [14] was greater than 30 µM.
`CC(C)(N)Cc1ccc(Cl)cc1` [CHLORPHENTERMINE] gave an AC50 [2] greater than 10 µM, an AC50 [3] of 25 µM and an AC50 [4] greater than 10 µM. It also gave an AC50 [5] greater than 10 µM, an AC50 [6] greater than 10 µM and an AC50 [7] greater than 30 µM. The AC50 [8] was greater than 10 µM, the AC50 [9] was 13.7 µM and the AC50 [10] was greater than 30 µM. For the same molecule, the AC50 [11] was greater than 30 µM, the AC50 [12] was 7.59 µM and the AC50 [13] was greater than 10 µM. The AC50 [14] was greater than 10 µM.
`O=C(c1ccc(F)c(F)c1Nc1ccc(I)cc1F)N1CC(O)([C@@H]2CCCCN2)C1` [COBIMETINIB] gave an AC50 [1] greater than 30 µM.
`CN1CCN(C(c2ccccc2)c2ccccc2)CC1` [CYCLIZINE] showed an AC50 [1] greater than 30 µM.
`NS(=O)(=O)c1cc2c(cc1Cl)NC(C1CC3C=CC1C3)NS2(=O)=O` (stereo not drawn) [CYCLOTHIAZIDE] showed an AC50 [1] greater than 30 µM.
With `Nc1nc(-n2cc(C(=O)O)c(=O)c3cc(F)c(N4CC(O)C4)c(Cl)c32)c(F)cc1F` [DELAFLOXACIN] the AC50 [1] was greater than 30 µM.
`C[C@@H]1C[C@H]2[C@@H]3CCC4=CC(=O)C=C[C@]4(C)[C@@]3(F)[C@@H](O)C[C@]2(C)[C@H]1C(=O)CO` [DESOXIMETASONE] showed an AC50 [1] greater than 30 µM.
For `COc1ccc(-c2cc(=O)c3c(O)cc(O[C@@H]4O[C@H](CO[C@@H]5O[C@@H](C)[C@H](O)[C@@H](O)[C@H]5O)[C@@H](O)[C@H](O)[C@H]4O)cc3o2)cc1O` [DIOSMIN], the AC50 [1] was greater than 30 µM.
